Assay results taken from ChEMBL document CHEMBL3045029, “Synthesis and antimicrobial activities of some isoxazolyl thiazolyl pyrazoles” (2012).

Assays:
Assay type in all cases: functional
Candida albicans = assay: Antifungal activity against Candida albicans MTCC 183 after 48 hr by serial dilution method
Bacillus subtilis = assay: Antibacterial activity against Bacillus subtilis MTCC 441 after 24 hr by serial dilution method
Escherichia coli = assay: Antibacterial activity against Escherichia coli MTCC 42 after 24 hr by serial dilution method
Staphylococcus aureus = assay: Antibacterial activity against Staphylococcus aureus MTCC 7443 after 24 hr by serial dilution method
Aspergillus niger = assay: Antifungal activity against Aspergillus niger MTCC 282 after 120 hr by serial dilution method

Question: For `C/C(=N\Nc1nc(-c2ccccc2)cs1)c1c(O)cc(C)oc1=O`, which “-logMIC” value (Candida albicans) is on record?
Answer: 1.435

Question: And the “-logMIC” value (Bacillus subtilis)?
Answer: 1.435

Question: What about the “-logMIC” value (Escherichia coli) of the same molecule?
Answer: 1.435

Question: And the “-logMIC” value (Staphylococcus aureus)?
Answer: 1.737

Question: And the “-logMIC” value (Aspergillus niger)?
Answer: 1.435

Question: How did the “-logMIC” value (Candida albicans) turn out when `C/C(=N\Nc1nc(-c2ccc(C)cc2)cs1)c1c(O)cc(C)oc1=O` was run?
Answer: 1.152

Question: And the “-logMIC” value (Bacillus subtilis)?
Answer: 1.453

Question: And the “-logMIC” value (Escherichia coli)?
Answer: 1.453

Question: And the “-logMIC” value (Staphylococcus aureus)?
Answer: 1.453

Question: And the “-logMIC” value (Aspergillus niger)?
Answer: 1.435

Question: Which “-logMIC” value (Candida albicans) does the source give for `COc1ccc(-c2csc(N/N=C(\C)c3c(O)cc(C)oc3=O)n2)cc1` here?
Answer: 1.171

Question: What about the “-logMIC” value (Bacillus subtilis) of the same molecule?
Answer: 1.171

Question: And the “-logMIC” value (Escherichia coli)?
Answer: 1.472

Question: What about the “-logMIC” value (Staphylococcus aureus) of the same molecule?
Answer: 1.472

Question: What about the “-logMIC” value (Aspergillus niger) of the same molecule?
Answer: 1.472

Question: For `C/C(=N\Nc1nc(-c2ccc(Cl)cc2)cs1)c1c(O)cc(C)oc1=O`, which “-logMIC” value (Candida albicans) is on record?
Answer: 1.478

Question: And the “-logMIC” value (Bacillus subtilis)?
Answer: 1.478

Question: And the “-logMIC” value (Escherichia coli)?
Answer: 1.478

Question: What about the “-logMIC” value (Staphylococcus aureus) of the same molecule?
Answer: 1.478

Question: What about the “-logMIC” value (Aspergillus niger) of the same molecule?
Answer: 1.478

Question: Which results are given for `CC(=O)CC(=O)c1c(C)[nH]n(-c2nc(-c3ccccc3)cs2)c1=O`?
Answer: -logMIC (Candida albicans): 1.435; -logMIC (Bacillus subtilis): 1.435; -logMIC (Escherichia coli): 1.435; -logMIC (Staphylococcus aureus): 1.435; -logMIC (Aspergillus niger): 1.435

Question: Which “-logMIC” value (Candida albicans) does the source give for `COc1ccc(-c2csc(-n3[nH]c(C)c(-c4cc(C)no4)c3=O)n2)cc1` here?
Answer: 1.47

Question: And the “-logMIC” value (Bacillus subtilis)?
Answer: 1.771

Question: What about the “-logMIC” value (Escherichia coli) of the same molecule?
Answer: 1.47

Question: And the “-logMIC” value (Staphylococcus aureus)?
Answer: 1.771

Question: What about the “-logMIC” value (Aspergillus niger) of the same molecule?
Answer: 1.771

Question: `Cc1cc(-c2c(C)[nH]n(-c3nc(-c4ccc(Cl)cc4)cs3)c2=O)on1` was tested. Which “-logMIC” value (Candida albicans) did it give?
Answer: 1.477

Question: And the “-logMIC” value (Bacillus subtilis)?
Answer: 1.775

Question: What about the “-logMIC” value (Escherichia coli) of the same molecule?
Answer: 1.775

Question: And the “-logMIC” value (Staphylococcus aureus)?
Answer: 2.077

Question: And the “-logMIC” value (Aspergillus niger)?
Answer: 1.474

Question: What does the source list for `Cc1cc(-c2c(C)[nH]n(-c3nc(-c4ccccc4)cs3)c2=O)on1`?
Answer: -logMIC (Candida albicans): 1.432; -logMIC (Bacillus subtilis): 1.733; -logMIC (Escherichia coli): 1.733; -logMIC (Staphylococcus aureus): 1.733; -logMIC (Aspergillus niger): 1.432

Question: With `Cc1ccc(-c2csc(-n3[nH]c(C)c(-c4cc(C)no4)c3=O)n2)cc1` as the molecule, how does the “-logMIC” value (Candida albicans) read?
Answer: 1.449

Question: What about the “-logMIC” value (Bacillus subtilis) of the same molecule?
Answer: 1.75

Question: What about the “-logMIC” value (Escherichia coli) of the same molecule?
Answer: 1.75

Question: And the “-logMIC” value (Staphylococcus aureus)?
Answer: 1.75

Question: What about the “-logMIC” value (Aspergillus niger) of the same molecule?
Answer: 1.75

Question: `OC(Cn1cncn1)(Cn1cncn1)c1ccc(F)cc1F` [FLUCONAZOLE] was tested. Which “-logMIC” value (Candida albicans) did it give?
Answer: 3

Question: What about the “-logMIC” value (Aspergillus niger) of the same molecule?
Answer: 3

Question: Which results are given for `CCn1cc(C(=O)O)c(=O)c2cc(F)c(N3CCNCC3)cc21` [NORFLOXACIN]?
Answer: -logMIC (Bacillus subtilis): 2.698; -logMIC (Escherichia coli): 2.698; -logMIC (Staphylococcus aureus): 2.698
